Experimental data reported in the kinase profiling compilation of Christmann-Franck et al. (2016).

How the values were obtained:
Experiment in all cases: Caliper, Mobility shift assay off-chip
PAK2 (human) = PAK2 (human) (UniProt Q13177)
FGFR4 (human) = FGFR4 (human) (UniProt P22455)
CSNK1G3 (human) = CSNK1G3 (human) (UniProt Q9Y6M4)
SGK2 (human) = SGK2 (human) (UniProt Q9HBY8)
BTK (human) = BTK (human) (UniProt Q06187)
PIM2 (human) = PIM2 (human) (UniProt Q9P1W9)
HIPK1 (human) = HIPK1 (human) (UniProt Q86Z02)
KDR (human) = KDR (human) (UniProt P35968)
MELK (human) = MELK (human) (UniProt Q14680)
IRAK4 (human) = IRAK4 (human) (UniProt Q9NWZ3)
[1] = test system: RET (human), P07949 [Y791F]
AURKB (human) = AURKB (human) (UniProt Q96GD4)
LCK (human) = LCK (human) (UniProt P06239)
STK3 (human) = STK3 (human) (UniProt Q13188)
CHEK1 (human) = CHEK1 (human) (UniProt O14757)
AKT2 (human) = AKT2 (human) (UniProt P31751)
PRKCD (human) = PRKCD (human) (UniProt Q05655)
AURKC (human) = AURKC (human) (UniProt Q9UQB9)
EPHA8 (human) = EPHA8 (human) (UniProt P29322)
RPS6KA3 KD1 KD2 (human) = RPS6KA3 KD1 KD2 (human) (UniProt P51812)
PRKCZ (human) = PRKCZ (human) (UniProt Q05513)
MAPK12 (human) = MAPK12 (human) (UniProt P53778)
PRKCG (human) = PRKCG (human) (UniProt P05129)
MAPK13 (human) = MAPK13 (human) (UniProt O15264)
ALK (human) = ALK (human) (UniProt Q9UM73)
CSNK1G2 (human) = CSNK1G2 (human) (UniProt P78368)
RPS6KA2 KD1 KD2 (human) = RPS6KA2 KD1 KD2 (human) (UniProt Q15349)
PRKCQ (human) = PRKCQ (human) (UniProt Q04759)
FRK (human) = FRK (human) (UniProt P42685)
PHKG2 (human) = PHKG2 (human) (UniProt P15735)
RPS6KA1 KD1 KD2 (human) = RPS6KA1 KD1 KD2 (human) (UniProt Q15418)
SRC (human) = SRC (human) (UniProt P12931)
RPS6KA5 KD1 KD2 (human) = RPS6KA5 KD1 KD2 (human) (UniProt O75582)

Chain of FRK (human) (P42685 whole entry, looked up): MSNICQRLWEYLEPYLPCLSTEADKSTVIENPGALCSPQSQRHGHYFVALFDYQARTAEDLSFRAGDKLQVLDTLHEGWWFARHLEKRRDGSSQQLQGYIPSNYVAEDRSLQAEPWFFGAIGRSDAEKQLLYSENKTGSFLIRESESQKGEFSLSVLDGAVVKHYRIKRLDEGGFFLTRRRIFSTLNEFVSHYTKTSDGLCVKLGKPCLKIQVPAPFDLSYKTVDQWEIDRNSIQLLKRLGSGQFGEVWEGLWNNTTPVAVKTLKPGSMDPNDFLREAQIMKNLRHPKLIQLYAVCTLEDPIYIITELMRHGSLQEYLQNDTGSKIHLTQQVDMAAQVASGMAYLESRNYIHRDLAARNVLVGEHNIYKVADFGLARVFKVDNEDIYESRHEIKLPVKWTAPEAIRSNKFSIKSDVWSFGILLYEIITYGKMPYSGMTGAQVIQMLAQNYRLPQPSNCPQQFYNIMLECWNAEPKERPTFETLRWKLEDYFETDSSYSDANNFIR
Chain of RPS6KA2 KD1 KD2 (human) (Q15349 whole entry, looked up): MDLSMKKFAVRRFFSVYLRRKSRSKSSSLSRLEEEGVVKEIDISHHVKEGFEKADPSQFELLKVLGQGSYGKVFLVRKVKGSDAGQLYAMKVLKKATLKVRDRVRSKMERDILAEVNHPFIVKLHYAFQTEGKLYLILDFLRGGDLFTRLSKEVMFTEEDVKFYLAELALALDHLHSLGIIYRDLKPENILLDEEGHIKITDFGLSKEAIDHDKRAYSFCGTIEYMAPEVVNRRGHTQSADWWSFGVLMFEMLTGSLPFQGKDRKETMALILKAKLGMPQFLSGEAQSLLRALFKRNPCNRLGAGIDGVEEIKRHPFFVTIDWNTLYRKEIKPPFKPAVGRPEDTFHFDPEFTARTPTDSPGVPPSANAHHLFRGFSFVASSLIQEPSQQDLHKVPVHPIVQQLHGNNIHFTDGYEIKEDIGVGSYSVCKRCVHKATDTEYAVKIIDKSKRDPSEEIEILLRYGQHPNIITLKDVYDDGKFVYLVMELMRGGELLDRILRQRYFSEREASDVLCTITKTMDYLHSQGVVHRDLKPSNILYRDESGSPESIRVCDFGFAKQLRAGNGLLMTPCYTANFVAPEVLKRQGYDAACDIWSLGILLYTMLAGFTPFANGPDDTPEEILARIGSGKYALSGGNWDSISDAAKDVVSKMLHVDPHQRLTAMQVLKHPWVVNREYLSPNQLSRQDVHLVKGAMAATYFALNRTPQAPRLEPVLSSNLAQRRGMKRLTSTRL
Chain of MELK (human) (Q14680 whole entry, looked up): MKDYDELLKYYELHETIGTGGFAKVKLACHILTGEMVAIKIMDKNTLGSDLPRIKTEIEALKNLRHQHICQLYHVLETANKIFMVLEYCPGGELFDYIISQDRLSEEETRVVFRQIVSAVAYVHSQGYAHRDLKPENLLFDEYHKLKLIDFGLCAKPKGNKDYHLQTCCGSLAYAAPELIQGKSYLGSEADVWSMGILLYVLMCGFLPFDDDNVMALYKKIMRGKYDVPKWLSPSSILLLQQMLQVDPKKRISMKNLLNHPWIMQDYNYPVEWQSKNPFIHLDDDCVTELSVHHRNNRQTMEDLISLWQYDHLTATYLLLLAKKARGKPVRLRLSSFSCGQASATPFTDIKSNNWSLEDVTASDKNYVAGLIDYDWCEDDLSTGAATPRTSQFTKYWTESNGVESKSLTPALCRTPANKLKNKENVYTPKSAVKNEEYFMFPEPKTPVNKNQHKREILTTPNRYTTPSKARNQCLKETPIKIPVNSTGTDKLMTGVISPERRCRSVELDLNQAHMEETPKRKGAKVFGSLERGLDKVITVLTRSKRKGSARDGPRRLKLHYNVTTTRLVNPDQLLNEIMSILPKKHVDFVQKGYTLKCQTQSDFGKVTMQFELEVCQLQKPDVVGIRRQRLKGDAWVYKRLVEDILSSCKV
Chain of SGK2 (human) (Q9HBY8 whole entry, looked up): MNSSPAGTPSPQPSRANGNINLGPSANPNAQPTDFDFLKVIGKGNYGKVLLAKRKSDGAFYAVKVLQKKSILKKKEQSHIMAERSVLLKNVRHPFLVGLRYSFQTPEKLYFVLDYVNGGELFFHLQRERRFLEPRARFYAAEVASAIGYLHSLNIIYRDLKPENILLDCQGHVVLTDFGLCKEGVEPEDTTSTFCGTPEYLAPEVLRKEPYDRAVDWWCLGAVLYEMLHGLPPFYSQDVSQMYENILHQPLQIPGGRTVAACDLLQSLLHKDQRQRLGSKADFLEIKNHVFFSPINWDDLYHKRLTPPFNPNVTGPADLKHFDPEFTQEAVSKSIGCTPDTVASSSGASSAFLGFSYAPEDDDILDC
Chain of BTK (human) (Q06187 whole entry, looked up): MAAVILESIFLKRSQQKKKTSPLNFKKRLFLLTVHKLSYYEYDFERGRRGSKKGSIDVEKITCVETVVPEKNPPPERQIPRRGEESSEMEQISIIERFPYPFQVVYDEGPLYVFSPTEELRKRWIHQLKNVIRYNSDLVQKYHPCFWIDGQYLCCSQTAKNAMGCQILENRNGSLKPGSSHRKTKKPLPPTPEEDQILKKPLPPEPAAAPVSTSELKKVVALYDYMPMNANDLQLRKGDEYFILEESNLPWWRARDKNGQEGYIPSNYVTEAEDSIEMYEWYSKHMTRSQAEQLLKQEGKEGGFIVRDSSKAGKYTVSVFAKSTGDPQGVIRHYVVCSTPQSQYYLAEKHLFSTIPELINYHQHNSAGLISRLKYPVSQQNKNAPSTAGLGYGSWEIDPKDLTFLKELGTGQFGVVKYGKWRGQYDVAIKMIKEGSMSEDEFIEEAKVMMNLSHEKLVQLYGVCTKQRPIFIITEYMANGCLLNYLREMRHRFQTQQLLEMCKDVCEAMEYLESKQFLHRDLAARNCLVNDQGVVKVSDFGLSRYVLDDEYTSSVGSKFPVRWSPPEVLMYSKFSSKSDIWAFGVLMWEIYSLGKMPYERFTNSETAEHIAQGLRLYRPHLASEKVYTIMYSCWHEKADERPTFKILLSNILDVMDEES
Chain of PRKCD (human) (Q05655 whole entry, looked up): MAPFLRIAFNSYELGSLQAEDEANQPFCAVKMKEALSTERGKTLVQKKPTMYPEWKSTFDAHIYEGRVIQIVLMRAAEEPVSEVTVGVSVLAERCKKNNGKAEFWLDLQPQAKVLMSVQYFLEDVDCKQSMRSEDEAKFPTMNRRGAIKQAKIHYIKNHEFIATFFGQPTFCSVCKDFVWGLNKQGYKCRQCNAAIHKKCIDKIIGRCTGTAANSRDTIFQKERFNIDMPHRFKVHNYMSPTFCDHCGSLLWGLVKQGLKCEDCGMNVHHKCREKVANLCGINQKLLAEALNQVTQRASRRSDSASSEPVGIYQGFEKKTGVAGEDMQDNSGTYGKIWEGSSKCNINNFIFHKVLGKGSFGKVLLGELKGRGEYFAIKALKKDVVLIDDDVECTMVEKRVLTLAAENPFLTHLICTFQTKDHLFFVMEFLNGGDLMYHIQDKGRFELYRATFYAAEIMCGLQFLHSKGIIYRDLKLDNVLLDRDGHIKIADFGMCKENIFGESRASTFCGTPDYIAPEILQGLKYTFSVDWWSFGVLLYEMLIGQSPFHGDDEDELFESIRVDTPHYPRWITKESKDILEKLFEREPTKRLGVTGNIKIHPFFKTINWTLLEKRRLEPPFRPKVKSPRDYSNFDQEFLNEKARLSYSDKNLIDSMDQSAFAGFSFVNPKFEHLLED
Chain of PRKCQ (human) (Q04759 whole entry, looked up): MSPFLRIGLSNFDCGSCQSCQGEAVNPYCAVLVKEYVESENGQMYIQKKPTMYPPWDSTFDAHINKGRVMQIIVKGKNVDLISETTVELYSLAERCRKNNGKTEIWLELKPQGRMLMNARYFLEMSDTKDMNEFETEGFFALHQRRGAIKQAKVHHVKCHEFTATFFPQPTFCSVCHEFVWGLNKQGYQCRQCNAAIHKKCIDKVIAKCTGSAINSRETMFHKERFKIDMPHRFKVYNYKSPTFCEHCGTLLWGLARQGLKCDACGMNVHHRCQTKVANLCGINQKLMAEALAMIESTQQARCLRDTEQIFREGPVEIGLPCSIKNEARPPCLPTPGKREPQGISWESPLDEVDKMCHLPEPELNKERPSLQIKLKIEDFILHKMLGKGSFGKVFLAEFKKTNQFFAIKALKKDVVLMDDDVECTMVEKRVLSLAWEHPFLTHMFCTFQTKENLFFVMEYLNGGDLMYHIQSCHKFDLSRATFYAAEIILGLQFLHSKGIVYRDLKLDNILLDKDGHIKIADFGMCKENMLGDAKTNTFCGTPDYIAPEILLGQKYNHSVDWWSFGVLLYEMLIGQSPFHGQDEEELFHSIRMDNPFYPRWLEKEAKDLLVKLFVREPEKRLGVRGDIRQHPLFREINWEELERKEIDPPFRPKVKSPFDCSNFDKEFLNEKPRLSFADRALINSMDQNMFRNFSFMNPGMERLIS
Chain of STK3 (human) (Q13188 whole entry, looked up): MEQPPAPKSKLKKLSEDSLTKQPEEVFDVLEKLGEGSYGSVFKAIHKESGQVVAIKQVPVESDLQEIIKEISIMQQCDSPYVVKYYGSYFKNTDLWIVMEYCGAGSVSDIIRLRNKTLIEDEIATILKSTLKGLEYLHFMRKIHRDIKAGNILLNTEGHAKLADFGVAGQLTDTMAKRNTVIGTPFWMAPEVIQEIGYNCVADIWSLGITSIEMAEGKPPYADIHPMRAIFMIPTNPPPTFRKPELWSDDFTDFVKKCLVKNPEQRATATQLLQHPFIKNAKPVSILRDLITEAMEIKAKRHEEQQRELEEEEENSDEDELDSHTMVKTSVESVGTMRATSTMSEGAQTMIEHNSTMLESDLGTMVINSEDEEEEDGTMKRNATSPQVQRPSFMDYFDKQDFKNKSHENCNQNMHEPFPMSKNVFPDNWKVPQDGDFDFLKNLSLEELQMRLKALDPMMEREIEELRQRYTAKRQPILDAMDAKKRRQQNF

In the case of `CN(c1ccc2ccc3ncc(-c4cnn(C)c4)cc3c(=O)c2c1)S(=O)(=O)NCc1ccccn1`, the inhibition (PAK2 (human); compound 0.1 µM) is reported as 10.2%, the inhibition (PAK2 (human); compound 1.0 µM) is reported as 5.3% and the inhibition (FGFR4 (human); compound 0.1 µM) is reported as 8.9%. It also gave an inhibition (FGFR4 (human); compound 1.0 µM) of 22.4%, an inhibition (CSNK1G3 (human); compound 0.1 µM) of 9.7% and an inhibition (CSNK1G3 (human); compound 1.0 µM) of 6.5%. It also gave an inhibition (SGK2 (human); compound 0.1 µM) of 1.8%, an inhibition (SGK2 (human); compound 1.0 µM) of 3.7% and an inhibition (BTK (human); compound 0.1 µM) of 4.7%. The inhibition (BTK (human); compound 1.0 µM) was 4.9%, the inhibition (PIM2 (human); compound 0.1 µM) was 1.2% and the inhibition (PIM2 (human); compound 1.0 µM) was 5.1%. It also gave an inhibition (HIPK1 (human); compound 0.1 µM) of 1%, an inhibition (HIPK1 (human); compound 1.0 µM) of 5.5% and an inhibition (KDR (human); compound 0.1 µM) of 33.2%. The inhibition (KDR (human); compound 1.0 µM) was 93.1%, the inhibition (MELK (human); compound 0.1 µM) was 11.5% and the inhibition (MELK (human); compound 1.0 µM) was 45.5%. For the same molecule, the inhibition (IRAK4 (human); compound 0.1 µM) was 7%, the inhibition (IRAK4 (human); compound 1.0 µM) was 16.1% and the inhibition ([1]; compound 0.1 µM) was 10.2%. It also gave an inhibition ([1]; compound 1.0 µM) of 43.4%, an inhibition (AURKB (human); compound 0.1 µM) of 37.1% and an inhibition (AURKB (human); compound 1.0 µM) of 80.7%. The inhibition (LCK (human); compound 0.1 µM) was -3.5%, the inhibition (LCK (human); compound 1.0 µM) was 11.3% and the inhibition (STK3 (human); compound 0.1 µM) was -6%. It also gave an inhibition (STK3 (human); compound 1.0 µM) of 7.6%, an inhibition (CHEK1 (human); compound 0.1 µM) of 3.6% and an inhibition (CHEK1 (human); compound 1.0 µM) of 2.6%. The inhibition (AKT2 (human); compound 0.1 µM) was -4.1%, the inhibition (AKT2 (human); compound 1.0 µM) was -15.8% and the inhibition (PRKCD (human); compound 0.1 µM) was -0.8%. It also gave an inhibition (PRKCD (human); compound 1.0 µM) of 2.2%, an inhibition (AURKC (human); compound 0.1 µM) of 31.7% and an inhibition (AURKC (human); compound 1.0 µM) of 75.8%. The inhibition (EPHA8 (human); compound 0.1 µM) was -1.9%, the inhibition (EPHA8 (human); compound 1.0 µM) was 4.6% and the inhibition (RPS6KA3 KD1 KD2 (human); compound 0.1 µM) was -1.9%. For the same molecule, the inhibition (RPS6KA3 KD1 KD2 (human); compound 1.0 µM) was 12.9%, the inhibition (PRKCZ (human); compound 0.1 µM) was 1.7% and the inhibition (PRKCZ (human); compound 1.0 µM) was 3.7%. The inhibition (MAPK12 (human); compound 0.1 µM) was -6%, the inhibition (MAPK12 (human); compound 1.0 µM) was 0.4% and the inhibition (PRKCG (human); compound 0.1 µM) was -8.6%. It also gave an inhibition (PRKCG (human); compound 1.0 µM) of -6.9%, an inhibition (MAPK13 (human); compound 0.1 µM) of -0.3% and an inhibition (MAPK13 (human); compound 1.0 µM) of 9.8%. For the same molecule, the inhibition (ALK (human); compound 0.1 µM) was -0.1%, the inhibition (ALK (human); compound 1.0 µM) was 12.2% and the inhibition (CSNK1G2 (human); compound 0.1 µM) was -9%. The inhibition (CSNK1G2 (human); compound 1.0 µM) was 1.2%, the inhibition (RPS6KA2 KD1 KD2 (human); compound 0.1 µM) was -5.9% and the inhibition (RPS6KA2 KD1 KD2 (human); compound 1.0 µM) was 9.6%. For the same molecule, the inhibition (PRKCQ (human); compound 0.1 µM) was -2.9%, the inhibition (PRKCQ (human); compound 1.0 µM) was -2% and the inhibition (FRK (human); compound 0.1 µM) was 1%. For the same molecule, the inhibition (FRK (human); compound 1.0 µM) was 8%, the inhibition (PHKG2 (human); compound 0.1 µM) was 17.8% and the inhibition (PHKG2 (human); compound 1.0 µM) was 12.7%. For the same molecule, the inhibition (RPS6KA1 KD1 KD2 (human); compound 0.1 µM) was -2.7%, the inhibition (RPS6KA1 KD1 KD2 (human); compound 1.0 µM) was 2.1% and the inhibition (SRC (human); compound 0.1 µM) was -3.2%. It also gave an inhibition (SRC (human); compound 1.0 µM) of 14.2%, an inhibition (RPS6KA5 KD1 KD2 (human); compound 0.1 µM) of -3.5% and an inhibition (RPS6KA5 KD1 KD2 (human); compound 1.0 µM) of 8.1%.
